The experiment deals with Mycobacterium tuberculosis. Put plainly: Antimycobacterial activity against Mycobacterium bovis BCG measured after 7 days. The experiment is classed as functional, organism-based. To be noted: variant bovis BCG, 168 h.

The structures appear in SMILES notation. Residues, ends and D or L forms follow the SMILES beside them.

As for `CC[C@@H](C)[C@@H]1NC(=O)[C@@H](CC(C)C)NC(=O)[C@H](CC(C)C)NC(=O)[C@H](Cc2c[nH]c3ccccc23)NC(=O)[C@@H](CCCN)NC(=O)[C@H](CC(N)=O)NC1=O`, half-maximal inhibition (IC50) required 2800 nM. Next, `CC(C)C[C@@H]1NC(=O)[C@H](Cc2c[nH]c3ccccc23)NC(=O)[C@@H](CCCN)NC(=O)[C@H](CC(N)=O)NC(=O)[C@H](C(C)C)NC(=O)[C@@H](CC(C)C)NC1=O` (HELM PEPTIDE1{[NCCC[C@@H](N[*:1])C(=O)[*:2]].W.L.[dL].V.N}$PEPTIDE1,PEPTIDE1,1:R1-6:R2$$$V2.0): 3100 nM.

The values above are taken from ChEMBL document CHEMBL4229459, “An efficient synthetic route for preparation of antimycobacterial wollamides and evaluation of their in vitro and in vivo efficacy” (Bioorg Med Chem Lett, 2018).
